The record followed here is paper PMC9266353, “Development of Novel Ecto-Nucleotide Pyrophosphatase/Phosphodiesterase 1 (ENPP1) Inhibitors for Tumor Immunotherapy” (International Journal of Molecular Sciences, 2022).

One data set concerns the target T1, human soluble ENPP1 (Homo sapiens, UniProt P22413).
T1 construct: addition of 20 ng of human soluble ENPP1; His; made in house; host or cells: 293-F cells (protein harvested from the medium)
T1 sequence (P22413 103-925 limits assumed): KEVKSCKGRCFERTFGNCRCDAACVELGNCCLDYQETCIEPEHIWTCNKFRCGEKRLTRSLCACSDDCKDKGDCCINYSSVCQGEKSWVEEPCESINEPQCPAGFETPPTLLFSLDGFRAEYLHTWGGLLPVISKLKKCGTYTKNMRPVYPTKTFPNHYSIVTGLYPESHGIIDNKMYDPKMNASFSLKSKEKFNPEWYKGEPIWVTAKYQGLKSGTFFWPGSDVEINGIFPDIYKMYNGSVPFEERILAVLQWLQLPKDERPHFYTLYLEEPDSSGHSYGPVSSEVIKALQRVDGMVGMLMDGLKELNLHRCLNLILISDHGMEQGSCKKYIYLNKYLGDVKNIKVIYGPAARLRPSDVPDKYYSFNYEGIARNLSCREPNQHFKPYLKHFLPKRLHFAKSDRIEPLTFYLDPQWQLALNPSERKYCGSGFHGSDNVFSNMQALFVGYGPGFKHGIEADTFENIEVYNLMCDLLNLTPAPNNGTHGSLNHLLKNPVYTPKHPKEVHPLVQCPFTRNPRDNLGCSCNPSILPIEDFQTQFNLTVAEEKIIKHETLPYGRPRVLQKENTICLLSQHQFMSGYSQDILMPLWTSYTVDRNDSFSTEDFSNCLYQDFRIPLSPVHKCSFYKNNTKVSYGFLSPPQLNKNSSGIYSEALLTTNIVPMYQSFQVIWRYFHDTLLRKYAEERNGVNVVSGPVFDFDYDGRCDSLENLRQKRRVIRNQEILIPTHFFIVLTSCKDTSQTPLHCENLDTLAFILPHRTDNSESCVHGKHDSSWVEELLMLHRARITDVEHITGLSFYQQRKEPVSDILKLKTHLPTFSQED
The data set is described as follows: Enzyme-based ENPP1 inhibitory assay (pNP-TMP substrate, 405 nm). Format: biochemical. As to conditions: for inhibition at 10 µM: pH 9, 10 μM compound, 200 μM pNP-TMP, pH 9.0, 37 °C; for IC50: three independent enzymatic assays, read-out: IC50 against ENPP1 (enzymatic assay). The method, then: In total, 1 mg hENPP1-HIS DNA using polyethylenimine at a DNA:PEI ratio of 1:3 was transfected into 1 L of 293-F cells in 293 freestyle medium. The medium was harvested after five days and filter-sterilized. […] Approximately 1 mg of purified protein was obtained from the 1-liter culture. The quality of the protein purification was validated by SDS-PAGE analysis (see Figure S1).
The initial screenings were carried out at 37 °C in a total volume of 0.1 mL of the following incubation mixture: 1 mM CaCl2, 200 μM ZnCl2, 50 mM Tris, pH 9.0, and 10 μM of each test compound. The enzyme reactions began with the addition of 20 ng of human soluble ENPP1, then incubated at 37 °C for 10 min and initiated by the addition of 200 μM pNP-TMP. The production of p-nitrophenol was measured after 30 min reaction at 405 nm. […] For the blank samples, the enzyme was added at the end of the reaction and read immediately. The IC50 values of test compounds were calculated by plotting three independent experiments using the program Prism 5.0. Incubation and operation conditions remained the same as those described above.

Data set [1] concerns the target T2, ENPP1 in the MDA-MB-231 cell line (Homo sapiens, UniProt P22413).
T2 construct: MDA-MB-231 cells highly expressed ENPP1; endogenous in cells; host or cells: MDA-MB-231
T2 sequence (P22413 1-925): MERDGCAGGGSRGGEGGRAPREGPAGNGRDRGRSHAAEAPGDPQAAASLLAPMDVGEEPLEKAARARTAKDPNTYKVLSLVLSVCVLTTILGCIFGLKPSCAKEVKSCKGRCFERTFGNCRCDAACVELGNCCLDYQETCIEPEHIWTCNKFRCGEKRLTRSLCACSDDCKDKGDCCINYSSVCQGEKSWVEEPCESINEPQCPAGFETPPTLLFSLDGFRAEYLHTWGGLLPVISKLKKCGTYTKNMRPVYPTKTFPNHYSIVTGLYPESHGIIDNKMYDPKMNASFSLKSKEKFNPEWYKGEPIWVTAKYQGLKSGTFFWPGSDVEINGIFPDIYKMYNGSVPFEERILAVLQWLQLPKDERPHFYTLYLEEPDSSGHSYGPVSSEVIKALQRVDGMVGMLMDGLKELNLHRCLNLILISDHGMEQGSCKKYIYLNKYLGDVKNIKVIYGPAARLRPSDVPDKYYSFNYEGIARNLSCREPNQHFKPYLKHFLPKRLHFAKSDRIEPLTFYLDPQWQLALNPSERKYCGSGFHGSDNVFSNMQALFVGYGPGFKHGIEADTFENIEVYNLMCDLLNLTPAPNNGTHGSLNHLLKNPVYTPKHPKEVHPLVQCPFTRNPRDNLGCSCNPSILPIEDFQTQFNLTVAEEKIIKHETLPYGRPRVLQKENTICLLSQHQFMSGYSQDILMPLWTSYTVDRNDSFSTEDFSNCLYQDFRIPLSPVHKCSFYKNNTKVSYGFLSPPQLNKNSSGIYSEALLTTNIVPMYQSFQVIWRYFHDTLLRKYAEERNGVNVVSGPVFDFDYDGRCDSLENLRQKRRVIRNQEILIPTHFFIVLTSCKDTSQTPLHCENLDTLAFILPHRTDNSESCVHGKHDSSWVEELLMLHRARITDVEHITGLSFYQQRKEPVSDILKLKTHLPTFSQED
Kind of data set: Cellular ENPP1 enzymatic inhibition assay in MDA-MB-231 cells (pNP-TMP). Format: cell-based. As to conditions: 4 h incubation, 200 μM pNP-TMP; three independent cell assays; read-out: IC50 against ENPP1 in MDA-MB-231 cell line. The method, then:
MDA-MB-231 (1.0 × 10^4 cells/well) were grown on 96-well microplates (IWAKI) overnight in the culture medium (100 μL/well) in a humidified incubator containing 5% CO2 in air at 37 °C for 24 h. The plates were washed with D-Hanks (100 μL) twice, and fresh D-Hanks (80 μL) was added. 5% DMSO or test compound (10 μL) was added to each well, and eventually pNP-TMP (2 mM, 10 μL, final 200 μM) was added. After 4 h incubation at 37 °C, the amounts of released p-nitrophenolate were measured at 405 nm. The IC50 values of test compounds were calculated by plotting three independent experiments using the program Prism 5.0 [38].

A further data set relates to 4T1 cell line. Kind of data set: Cell proliferation assay (CCK8), 4T1. The class given is cell-based. As to conditions: CCK8, 48 h, read-out: IC50 against 4T1 cell line. The method, then: In total, 1 × 10^4 cells (4T1, LO2 and 293T) were plated in 96-well flat-bottom plates in a final volume of 200 μL DMEM supplemented with 10% FBS and cultured for 24 h. Next, the culture was replaced by fresh DMEM medium (200 μL) and the compound (10 μL) was added. After forty-eight hours, the medium was replaced by PBS (180 μL) mixture with CCK8 solution (20 μL) in each well. Cell viability was evaluated by testing the OD450 nm. The data were processed by GraphPad Prism 7.0 [45, 46].

In another data set the test system is LO2 cell line. The data set is described as follows: Cell viability assay (CCK8), LO2. The class given is cell-based. The method, then: (§1) Next, the culture was replaced by fresh DMEM medium (200 μL) and the compound (10 μL) was added. After forty-eight hours, the medium was replaced by PBS (180 μL) mixture with CCK8 solution (20 μL) in each well. Cell viability was evaluated by testing the OD450 nm. The data were processed by GraphPad Prism 7.0 [45, 46].

The test system of a further data set is 293T cell line. Kind of data set: Cell viability assay (CCK8), 293T. The class given is cell-based. The method, then:
as §1

The next data set deals with IFN-β in serum. Kind of data set: IFN-β in mouse serum by ELISA after i.v. administration. As to conditions: blood after 0.5 h. The class given is in vivo, BALB/c nude mice. The method, then:
The animal studies were conducted with the approval of the Animal Care and Use Committee at Fudan University. BALB/c nude mice (6−8 weeks) were randomized into three groups (n = 3, with a total tumor number of 9). Free cGAMP (at dose of 5 mg/kg) and cGAMP-compound 4e (at doses of 5 mg/kg cGAMP and 0.5 mg/kg compound 4e), respectively, were injected intravenously (i.v.) into mice via tail vein. After i.v. administration, mouse blood samples were collected from ophthalmic vein after 0.5 h and centrifuged at 500× g for 20 min. The concentration of IFN-β in the serum was determined by mouse ELISA kits, according to the instruction manual.

The structures appear in SMILES notation. Where “and” joins values, the source holds several entries; their conditions need not be identical. Identical values can stand only once. Entries after “also recorded” stand apart in the source; their conditions may differ. Like-named read-outs stand apart in the source and are kept apart here. Where only a bound is given, the exact number is not on record here.

Turning to `COC(=O)c1ccc2c(=O)[nH]c(CSc3nc4nc(OC)ccc4[nH]3)nc2c1` [Compound 4d, Methyl 2-(((5-methoxy-1H-imidazo[4,5-b]pyridin-2-yl)thio)methyl)-4-oxo-3,4-dihydroquina-zoline-7-carboxylate], at human soluble ENPP1, the inhibition (as a rule, the drop in the measured response relative to a control, in per cent) at 10 µM is more than 90% and the IC50 – broadly, the point on the concentration scale where inhibition reaches its midpoint – is 694 nM. Also, in data set [1], the IC50 amounted to 3340 nM.
Compound `COc1ccc2[nH]c(SCc3nc4c(C)cccc4c(=O)[nH]3)nc2n1` [Compound 4g, 2-(((5-Methoxy-1H-imidazo[4,5-b]pyridin-2-yl)thio)methyl)-8-methylquinazoli-n-4(3H)-one] showed an inhibition at 10 µM on human soluble ENPP1 of 72.7%.
Still for that read-out and setting: to `COc1ccc2[nH]c(SCc3nc4cccc(F)c4c(=O)[nH]3)nc2n1` [Compound 4a, 5-Fluoro-2-(((5-methoxy-1H-imidazo[4,5-b]pyridin-2-yl)thio)methyl)quinazol-in-4(3H)-one] belongs 72.2%.
The compound `COc1ccc2[nH]c(SCc3nc4cc(F)ccc4c(=O)[nH]3)nc2n1` [Compound 4e, 7-Fluoro-2-(((5-methoxy-1H-imidazo[4,5-b]pyridin-2-yl)thio)methyl)quinazolin-4(3H)-one] showed an inhibition at 10 µM against human soluble ENPP1 of more than 90%. Also, the IC50 was 188 nM and < 1000 nM on human soluble ENPP1; < 1000 nM and 732 nM in data set [1]; 2990 nM in the data set on 4T1 cell line (Mus musculus, 4T1). In the data set on LO2 cell line (50 μM, CCK8, 48 h), the “cytotoxic effect (% inhibition) against LO2” value was 15.33%. The “cytotoxic effect on LO2 (in words)” value in the data set on LO2 cell line (highest concentration 50 μM) is listed as “nonsignificant cytotoxic effect; also recorded: negligible cytotoxic effects”. Moreover, the “cytotoxic effect (% inhibition) against 293T” value in the data set on 293T cell line (50 μM, CCK8, 48 h) is given as 9.35%. Besides, the “cytotoxic effect on 293T (in words)” value with 293T cell line (highest concentration 50 μM) was “nonsignificant cytotoxic effect; also recorded: negligible cytotoxic effects”. The “IFN-β expression level in serum, cGAMP-compound 4e group compared with free-cGAMP group” value with IFN-β in serum (5 mg/kg cGAMP and 0.5 mg/kg compound 4e i.v.) is “higher”.
At human soluble ENPP1, `COc1ccc2nc(CSc3nc4nc(OC)ccc4[nH]3)[nH]c(=O)c2c1` [Compound 4b, 6-Methoxy-2-(((5-methoxy-1H-imidazo[4,5-b]pyridin-2-yl)thio)methyl)quinaz-olin-4(3H)-one] came in with an inhibition at 10 µM of 76.5%.
Same read-out and setting: in the case of `COc1ccc2[nH]c(SCc3nc4c(Br)cccc4c(=O)[nH]3)nc2n1` [Compound 4h, 8-Bromo-2-(((5-methoxy-1H-imidazo[4,5-b]pyridin-2-yl)thio)methyl)quinazoli-n-4(3H)-one] it was 55.5%; in that of `COc1ccc2[nH]c(SCc3nc4cc(C)ccc4c(=O)[nH]3)nc2n1` [Compound 4c, 2-(((5-Methoxy-1H-imidazo[4,5-b]pyridin-2-yl)thio)methyl)-7-methylquinazoli-n-4(3H)-one], 75.4%.
`COc1ccc2[nH]c(SCc3nc4cc(Cl)ccc4c(=O)[nH]3)nc2n1` [Compound 4f, 7-Chloro-2-(((5-methoxy-1H-imidazo[4,5-b]pyridin-2-yl)thio)methyl)quinazolin-4(3H)-one] displayed an inhibition at 10 µM on human soluble ENPP1 of 52.9%.
Take `Nc1nc2c(ncn2[C@@H]2O[C@@H]3COP(=O)(O)O[C@H]4[C@@H](O)[C@H](n5cnc6c(N)ncnc65)O[C@@H]4COP(=O)(O)O[C@@H]2[C@@H]3O)c(=O)[nH]1` [cGAMP, 2′,3′-cyclic GMP-AMP, reference compound]: the “IFN-β in serum, free cGAMP compared with model mice” value in the data set on IFN-β in serum (5 mg/kg cGAMP i.v.) is “upregulation”.
Turning to `N.N.[Cl][Pt][Cl]` [Cisplatin, cisplatin, reference compound], in the data set with 4T1 cell line, the IC50 is 3200 nM.
